Experimental data published in US8524727B2, “Pyrimidine compound” (Astellas Pharma Inc., priority 2009, dated 2013).

Key:
human CB2 = target: T1, human CB2 (Homo sapiens, UniProt P34972); assay: Human CB2-mediated cyclic AMP (cAMP) production inhibition assay; type: cell-based; conditions: 30 nM test substance, human CB2-expressing CHO cells, forskolin 0.5 μM, 30 minutes at room temperature; for inhibition at 0.03 µM: CHO, read-out: Inh (%): inhibitory rate of cAMP increase
T1 construct: expressed in transfected cells; host or cells: CHO cells
T1 sequence (P34972 whole entry): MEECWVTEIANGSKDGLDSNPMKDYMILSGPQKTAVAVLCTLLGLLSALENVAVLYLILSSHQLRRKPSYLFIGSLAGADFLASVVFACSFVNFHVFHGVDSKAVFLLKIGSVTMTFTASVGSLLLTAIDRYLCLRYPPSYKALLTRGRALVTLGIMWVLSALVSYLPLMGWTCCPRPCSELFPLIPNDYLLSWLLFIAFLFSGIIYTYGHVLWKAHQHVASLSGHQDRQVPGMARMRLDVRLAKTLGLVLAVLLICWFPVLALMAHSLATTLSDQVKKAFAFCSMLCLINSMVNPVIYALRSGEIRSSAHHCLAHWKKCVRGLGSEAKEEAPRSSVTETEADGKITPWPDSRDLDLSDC
Description: The present test was performed using CHO cells expressing human CB2 (“Molecular Pharmacology”, 1995, vol. 48, p. 443-450).
A suspension of human CB2-expressing CHO cells (2.5×10^3/mL), and an assay medium added with a test substance and forskolin (final concentration 0.5 μM) were mixed in the equivalent amounts, and incubated at room temperature for 30 minutes. Then, the cAMP concentration in the cell lysis solution obtained by the addition of a 0.6% Triton X-100 solution was measured using a cAMP kit (manufactured by Cisbio international). The assay medium includes an α-MEM medium manufactured by Invitrogen, supplemented with 0.02% CHAPS, 1 mM isobutylmethyl xanthine, and 0.5 mg/mL bovine serum albumin. As the cAMP concentration in the cell suspension without the addition of forskolin was set as a cAMP increase rate of 0% and the cAMP concentration in the cell suspension with the addition of forskolin was set as a cAMP increase rate of 100%, the inhibitory rate of the intracellular cAMP increase at 30 nM test substance was determined.
In the table, Ex indicates Example Compound number below, and Inh indicates an inhibitory rate of cAMP increase.

[1] = tested on: adjuvant-induced arthritis rats; assay: Inhibitory effect on hind paw weight distribution in adjuvant-induced arthritis rats; type: in vivo; conditions: orally administered, female Lewis rats
Description: For the experiment, female Lewis rats (7-8 week old) were used. 50 μL of inactivated Mycobacterium tuberculosis H37 Ra (manufactured by DIFCO) suspended with liquid paraffin to 10 mg/mL was administered subcutaneously into the right hindlimb footpad. The test substance was orally administered next day, the weights of the left and right hind paws after an arbitrary time were measured using Incapasitance Tester (manufactured by Columbus Instruments), and the weight distribution between left and right was calculated. As the weight distribution of the group administered with the vehicle was set as the inhibitory rate of 0% and the weight distribution of the normal group was set as the inhibitory rate of 100%, the inhibitory rate of the test substance was calculated.
In the table, Ex indicates Example Compound number below, Inh indicates an inhibitory rate of the weight distribution, and the description after to @ means the administration amount.

SMILES	inhibition at 0.03 µM (human CB2) [%]	other results
CC(C)(C)c1nc(N[C@@H]2C[C@H]3CC[C@@H]2C3)ncc1C(=O)N1CCOCC1 [Example 72]	99	Inh (%): inhibitory rate of the weight distribution ([1]; 0.1 mpk): 40@0.1 mpk %
O=C(c1cnc(N[C@@H]2C[C@H]3CC[C@@H]2C3)nc1C1CC1)N1CCS(=O)(=O)CC1 [Example 67]	76	
O=C(c1cnc(NC23CC4CC(CC(O)(C4)C2)C3)nc1C(F)(F)F)N1CC(F)(F)C(F)(F)C1 [Example 88]	76	
O=C(c1cnc(N[C@@H]2C[C@H]3CC[C@@H]2C3)nc1C(F)(F)F)N1CCS(=O)(=O)CC1 [Example 133]		Inh (%): inhibitory rate of cAMP increase (human CB2): 80%
CC(C)c1nc(N[C@H]2C[C@@H]3CC[C@H]2C3)ncc1C(=O)N1CCOCC1 [Example 79]	74	
CC(C)c1nc(N[C@@H]2C[C@H]3CC[C@@H]2C3)ncc1C(=O)N1CCOCC1 [Example 83]	84	
CC(C)c1nc(N[C@@H]2C[C@H]3CC[C@@H]2C3)ncc1C(=O)N1CCOCC1 [Example 64]		Inh (%): inhibitory rate of cAMP increase (human CB2): 85%; Inh (%): inhibitory rate of the weight distribution ([1]; 0.1 mpk): 52@0.1 mpk %
O=C(c1cnc(NC23CC4CC(CC(C4)C2)C3)nc1C(F)(F)F)N1CCC(F)(F)CC1 [Example 45]	79	
CC1(C)CCN(c2ncc(C(=O)N3CCS(=O)(=O)CC3)c(C(F)(F)F)n2)c2ccccc21 [Example 55]	63	
O=C(c1cnc(N[C@@H]2C[C@H]3CC[C@@H]2C3)nc1C(F)(F)F)N1CCS(=O)(=O)CC1 [Example 103]	67	Inh (%): inhibitory rate of the weight distribution ([1]; 0.3 mpk): 41@0.3 mpk %

More lines, main results first:

inhibition at 0.03 µM (human CB2) [%]	SMILES	other results
80	O=C(c1cnc(NC23CC4(F)CC(F)(CC(F)(C4)C2)C3)nc1C(F)(F)F)N1CCS(=O)(=O)CC1 [Example 109]	Inh (%): inhibitory rate of the weight distribution ([1]; 0.3 mpk): 35@0.3 mpk %
74	CC1(C)[C@@H]2CC[C@@]1(C)[C@@H](Nc1ncc(C(=O)N3CCS(=O)(=O)CC3)c(C(F)(F)F)n1)C2 [Example 106]	
75	FC1(F)CCN(Cc2cnc(N[C@@H]3C[C@H]4CC[C@@H]3C4)nc2C(F)(F)F)CC1 [Example 161]	
70	O=C(c1cnc(NC23CC4CC(CC(C4)C2)C3)nc1C(F)(F)F)N1CCOCC1 [Example 143]	
70	O=C(c1cnc(NC23CCC(CC2)CC3)nc1C(F)(F)F)N1CCS(=O)(=O)CC1 [Example 122]	Inh (%): inhibitory rate of the weight distribution ([1]; 0.1 mpk): 45@0.1 mpk %
49	O=C(c1cnc(N[C@H]2C[C@@H]3CC[C@H]2C3)nc1C(F)(F)F)N1CCS(=O)(=O)CC1 [Example 138]	
